Results from patent publication US12606533B2, “3-phenylpropylamine derivative” (DAIICHI SANKYO COMPANY, LIMITED, priority 2023, dated 2026).
Where two headings read alike, the source gives them in different places.

What was measured:
NCI-H295R cells = assay: Proliferation inhibitory action on NCI-H295R (CellTiter-Glo, 7 days); type: cell-based, human
Method in brief: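 Compounds serially diluted in DMSO; cells seeded at 2×10^3 cells/well and cultured 7 days at 37° C, 5% CO2. CellTiter-Glo 2.0 luminescence read at day 0 and day 7; proliferation rate derived from compound-addition-day signal, untreated day-7 signal and treated day-7 signal.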

SF-1 = target: T1, SF-1 (Homo sapiens, UniProt Q13285); assay: SF1 degradation induction in NCI-H295R SF-1-HiBiT cells (HiBiT DC50); type: cell-based; conditions: 24 hr, concentration that induces 50% degradation of SF-1
T1 construct: NCI-H295R SF-1-HiBiT cells with HiBiT tag knocked in at the endogenous SF1 locus; host or cells: NCI-H295R SF-1-HiBiT (knock-in at endogenous locus)
Method in brief: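 NCI-H295R cells carrying HiBiT-tagged SF-1, plated and grown 24 hr, then exposed to serially diluted compounds for 24 hr at 37° C. Remaining SF-1 read by lytic HiBiT luminescence; degradation rate from treated vs compound-free signal, DC50 as concentration giving 50% degradation.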

SMILES	GI50 (NCI-H295R cells; Homo sapiens, NCI-H295R, 168 h)	DC50 (SF-1)	GI50 (NCI-H295R cells)
COc1ccc([C@]2(CCN(CC(C)(C)C(F)(F)F)C[C@H]3CC[C@H](c4ccc(NC(=O)N5CCC(Nc6ccc7c(c6)n(C)c(=O)n7C6CCC(=O)NC6=O)CC5)cc4)CC3)CCOC(C)(C)C2)cc1 (stereo partly drawn) [CA1, 4-{[1-(2,6-Dioxopiperidin-3-yl)-3-methyl-2-oxo-2,3-dihydro-1H-benzimidazol-5-yl]amino}-N-[4-(trans-4-{[{2-[(4R)-4-(4-methoxyphenyl)-2,2-dimethyltetrahydro-2H-pyran-4-yl]ethyl) (3,3,3-trifluoro-2,2-dimethylpropyl)amino]methyl}cyclohexyl)phenyl]piperidine-1-carboxamide]	48 nM	5.5 nM	–
COc1ccc([C@]2(CCN(Cc3ccc(-c4cccc(CC(=O)NCCNc5ccc6c(c5)n(C)c(=O)n6C5CCC(=O)NC5=O)c4)cc3)CC(C)(C)C(F)(F)F)CCOC(C)(C)C2)cc1 (stereo partly drawn) [Example AA4, N-(2-{[1-(2,6-Dioxopiperidin-3-yl)-3-methyl-2-oxo-2,3-dihydro-1H-benzimidazol-5-yl]amino}ethyl)-2-(4′-{[{2-[(4R)-4-(4-methoxyphenyl)-2,2-dimethyltetrahydro-2H-pyran-4-yl]ethyl)(3,3,3-trifluoro-2,2-dimethylpropyl)amino]methyl}[biphenyl]-3-yl)acetamide]	488 nM	12 nM	–
COc1ccc([C@]2(CCN(Cc3ccc(C4=CC[C@H](C(=O)N5CCC(Nc6cccc7c6n(C)c(=O)n7C6CCC(=O)NC6=O)CC5)CC4)c(F)c3)CC(C)(C)C(F)(F)F)CCOC(C)(C)C2)cc1 (stereo partly drawn) [CD2, 3-{4-[(1-{[(4R)-2′-Fluoro-4′-{[{2-[(4R)-4-(4-methoxyphenyl)-2,2-dimethyltetrahydro-2H-pyran-4-yl]ethyl}(3,3,3-trifluoro-2,2-dimethylpropyl)amino]methyl}-2,3,4,5-tetrahydro[biphenyl]-4-yl]carbonyl}piperidin-4-yl)amino]-3-methyl-2-oxo-2,3-dihydro-1H-benzimidazol-1-yl}piperidine-2,6-dione]	33 nM	7 nM	–
COc1ccc([C@]2(CCN(Cc3ccc(C4=CC[C@H](C(=O)N5CCC(Nc6ccc7c8c6CCCn8c(=O)n7C6CCC(=O)NC6=O)CC5)CC4)c(F)c3)CC(C)(C)C(F)(F)F)CCOC(C)(C)C2)cc1 (single isomer, unassigned) [CH1, (3S) or (3R)-{7-[(1-{[(4R)-2′-Fluoro-4′-{[{2-[(4R)-4-(4-methoxyphenyl)-2,2-dimethyltetrahydro-2H-pyran-4-yl]ethyl}(3,3,3-trifluoro-2,2-dimethylpropyl)amino]methyl}-2,3,4,5-tetrahydro[biphenyl]-4-yl]carbonyl}piperidin-4-yl)amino]-2-oxo-5,6-dihydro-4H-imidazo[4,5,1-ij]quinolin-1(2H)-yl}piperidine-2,6-dione]	–	2.8 nM	25 nM
COc1ccc([C@]2(CCN(Cc3ccc(C4=CCC(C(=O)N5CCN(Cc6ccc7c(c6)n(C)c(=O)n7C6CCC(=O)NC6=O)CC5)CC4)cc3F)CC(C)(C)C(F)(F)F)CCOC(C)(C)C2)cc1 (stereo partly drawn) [AT3, 3-[5-({4-[(3′-Fluoro-4′-{[{2-[(4R)-4-(4-methoxyphenyl)-2,2-dimethyltetrahydro-2H-pyran-4-yl]ethyl}(3,3,3-trifluoro-2,2-dimethylpropyl)amino]methyl}-2,3,4,5-tetrahydro[biphenyl]-4-yl)carbonyl]piperazin-1-yl}methyl)-3-methyl-2-oxo-2,3-dihydro-1H-benzimidazol-1-yl]piperidine-2,6-dione]	45 nM	7.7 nM	–
COc1ccc([C@]2(CCN(Cc3ccc(C4=CC[C@H](C(=O)N5C6COCC5CC(Nc5ccc7c8c5CCCn8c(=O)n7C5CCC(=O)NC5=O)C6)CC4)c(F)c3)CC(C)(C)C(F)(F)F)CCOC(C)(C)C2)cc1 (stereo partly drawn) [CC3, 3-[7-{[(7-Exo)-9-{[(4R)-2′-fluoro-4′-{[{2-[(4R)-4-(4-methoxyphenyl)-2,2-dimethyltetrahydro-2H-pyran-4-yl]ethyl)(3,3,3-trifluoro-2,2-dimethylpropyl)amino]methyl}-2,3,4,5-tetrahydro[biphenyl]-4-yl]carbonyl}-3-oxa-9-azabicyclo[3.3.1]nonan-7-yl]amino}-2-oxo-5,6-dihydro-4H-imidazo[4,5,1-ij]quinolin-1(2H)-yl]piperidine-2,6-dione]	36 nM	4.9 nM	–

The remaining compounds from weak to strong by GI50 (NCI-H295R cells; Homo sapiens, NCI-H295R, 168 h), led by results:

GI50 (NCI-H295R cells; Homo sapiens, NCI-H295R, 168 h)	DC50 (SF-1)	SMILES	GI50 (NCI-H295R cells)
79 nM	7.7 nM	COc1ccc([C@]2(CCN(Cc3ccc(C4=CCC(C(=O)N5CCC(N(C)c6ccc7c8c6CCCn8c(=O)n7C6CCC(=O)NC6=O)CC5)CC4)c(F)c3)CC(C)(C)C(F)(F)F)CCOC(C)(C)C2)cc1 (stereo partly drawn) [BH5, 3-{7-[{1-[(2′-Fluoro-4′-{[{2-[(4R)-4-(4-methoxyphenyl)-2,2-dimethyltetrahydro-2H-pyran-4-yl]ethyl}(3,3,3-trifluoro-2,2-dimethylpropyl)amino]methyl}-2,3,4,5-tetrahydro[biphenyl]-4-yl)carbonyl]piperidin-4-yl}(methyl)amino]-2-oxo-5,6-dihydro-4H-imidazo[4,5,1-ij]quinolin-1(2H)-yl}piperidine-2,6-dione]	–
71 nM	7.3 nM	COc1ccc([C@]2(CCN(Cc3ccc(C4=CCC(C(=O)N[C@H]5C[C@H](Nc6ccc7c(c6)n(C)c(=O)n7C6CCC(=O)NC6=O)C5)CC4)cc3)CC(C)(C)C(F)(F)F)CCOC(C)(C)C2)cc1 (stereo partly drawn) [AY8, N-(Trans-3-{[1-(2,6-dioxopiperidin-3-yl)-3-methyl-2-oxo-2,3-dihydro-1H-benzimidazol-5-yl]amino}cyclobutyl)-4′-{[{2-[(4R)-4-(4-methoxyphenyl)-2,2-dimethyltetrahydro-2H-pyran-4-yl]ethyl}(3,3,3-trifluoro-2,2-dimethylpropyl)amino]methyl}-2,3,4,5-tetrahydro[biphenyl]-4-carboxamide]	–
60 nM	9.3 nM	COc1ccc([C@]2(CCN(Cc3cc(F)c(C4=CCC(C(=O)N5CCN(Cc6ccc7c(c6)n(C)c(=O)n7C6CCC(=O)NC6=O)CC5)CC4)c(F)c3)CC(C)(C)C(F)(F)F)CCOC(C)(C)C2)cc1 (stereo partly drawn) [AU4, 3-[5-({4-[(2′,6′-Difluoro-4′-{[{2-[(4R)-4-(4-methoxyphenyl)-2,2-dimethyltetrahydro-2H-pyran-4-yl]ethyl)(3,3,3-trifluoro-2,2-dimethylpropyl)amino]methyl}-2,3,4,5-tetrahydro[biphenyl]-4-yl)carbonyl]piperazin-1-yl}methyl)-3-methyl-2-oxo-2,3-dihydro-1H-benzimidazol-1-yl]piperidine-2,6-dione]	–
28 nM	7 nM	COc1ccc([C@]2(CCN(Cc3ccc4nn(C5CC6(CCN(CC(=O)Nc7ccc8c(c7)n(C)c(=O)n8C7CCC(=O)NC7=O)CC6)C5)cc4c3)CC(C)(C)C(F)(F)F)CCOC(C)(C)C2)cc1 (stereo partly drawn) [AZ8, N-[1-(2,6-Dioxopiperidin-3-yl)-3-methyl-2-oxo-2,3-dihydro-1H-benzimidazol-5-yl]-2-[2-(5-{[{2-[(4R)-4-(4-methoxyphenyl)-2,2-dimethyltetrahydro-2H-pyran-4-yl]ethyl}(3,3,3-trifluoro-2,2-dimethylpropyl)amino]methyl}-2H-indazol-2-yl)-7-azaspiro[3.5]nonan-7-yl]acetamide]	–
